In brackets after ≈: the same amount, converted by molar mass.
Test system: P388
Experiment: Cytotoxicity against mouse P388 cells
Type: functional
Details: read-out: ED50 (the source's name)

COc1cc2cc(COC(C)=O)c(C(=O)O[C@@H]3O[C@H](CO)[C@@H](O)[C@H](O)[C@H]3O)c(-c3ccc4c(c3)OCO4)c2cc1OC [PHYLLANTHOSTATIN A]
EC50: 4 µg/mL (≈ 6.82 µM)
